# In ChEMBL document CHEMBL3507680, “University of Dundee, Gates Library screen for HepG2 cell viability”:
# Assay: Human HepG2 cell viability assay in 384 well format
# Type: toxicity, cell-based
# Design: dose 125 nL, time 70.5 hour; concentration not given beside the values
# Settings: HepG2 cells, read-out: Inhibition
row,Structure (SMILES),cytotoxicity at 70.5 h [%]
1,Cc1nc(Cn2cc(I)cc(C)c2=O)oc1C,2.15
2,CN(C(=O)CN1CCCC1c1cnn(C)c1)C1(C#N)CCCCC1 (stereo not given),-4.65
3,O=C(CCc1cccnc1)N1CCCCC1c1ccn2ccnc2n1 (stereo not given),-6.74
4,CN(C[C@@H]1CCC[C@@H]2CN(c3ncccn3)C[C@@H]21)C1CC1,-1.63
5,CC(C)Nc1nc2c(c(NC3CC3)n1)CN(C(=O)c1ccncc1)CC2,32.7
6,CCC(CC)NC(=O)CN1CCSCC1,3.72
7,Cc1nnc2n1CCN(CCOc1cccc(C#N)c1)C2,-4.21
8,c1ccc(-c2cc(CNCCN3CCOCC3)c3nnnn3c2)cc1,-0.928
9,COCc1nn(C(C)C)c2c1CCN(Cc1nccs1)C2,12.2
10,Cc1oncc1C(=O)N1CCC2(CC1)CN(S(C)(=O)=O)c1ccccc12,-3.56
11,CC(NC(=O)NCC1(c2ccccc2)CCC1)c1nncn1C (stereo not given),-16.7
12,CC(C)N1CCC2(CC1)CC(NCc1ccccn1)c1ccccc1O2 (stereo not given),-0.344
13,CC(C)(C)CC(=O)N1CSCC1C(=O)NCc1cccc(C#N)c1 (stereo not given),15.4
14,COc1ccccc1[C@@H]1CN(CC2CCC2)C[C@H]1C(=O)O,-5.88
15,Cc1cnn(CC2CN(Cc3nc(-c4ccco4)no3)CCO2)c1 (stereo not given),-0.209
16,O=C(O)CCc1cccc(C2CCCN2Cc2ccc(F)c(F)c2)n1 (stereo not given),-6.64
17,COc1ncc(-c2c(C#N)c(N)nc3c2CCc2[nH]ccc2-3)cn1,-4.69
18,CCC1(CC)C(=O)NC(=O)N/C1=N/c1cccc(OC)c1,26.5
19,O=C1[C@@H]2C[C@H](O)CCN2C(=O)CN1CCSc1ccccn1,0.109
20,O=C(O)c1c(-c2ccoc2)ncc2c1CCN(C1CCOC1)C2 (stereo not given),-2.3
21,O=C(c1ccc(S(=O)(=O)NCC(F)F)cc1)N1CC[C@H]2CNC[C@H]21,0.673
22,CNC(=O)c1sc2ccccc2c1CC1CCCCN1Cc1ncc[nH]1 (stereo not given),-7.25
23,CCCNC(=O)c1cc(Br)c2c(c1)OCCO2,-9.42

row,Structure (SMILES),cytotoxicity at 70.5 h [%]
1,Cc1nn(C)c(Cl)c1S(=O)(=O)N(C)C,1.44
2,Cc1nn(-c2ccccc2)cc1C(=O)N1CCCC(n2ccnc2)C1 (stereo not given),-0.753
3,CCOC(=O)Cn1ccc2cc(NC(=O)N3CCSCC3)ccc21,1.82
4,C1CC(c2noc(C3CC3)n2)CN(CCOCC2CC2)C1 (stereo not given),7.19
5,CNc1cc(C)nc(N2C[C@@H](C(=O)O)[C@H](C3CC3)C2)n1,-1.21
6,O=C1CCSCC(C(=O)N2CCCC2)N1 (stereo not given),-2.31
7,CCc1nc(C2CCCN2C(=O)c2c[nH]c(C)n2)no1 (stereo not given),27.8
8,CCN(C(=O)Cc1ccc(NC(=O)NC2CC2)cc1)c1ccccc1,-3.6
9,O=C1CC2(CCN(Cc3ccncc3)C2)CN1c1ccc2c(c1)OCO2 (stereo not given),30
10,CC(C)n1cc(CN2CCCN(C(=O)CN3CCCC3=O)CC2)cn1,58
11,Cc1cc2[nH]c(=O)c(=O)[nH]c2cc1S(=O)(=O)NC1CCC(C)CC1 (stereo not given),-5.16
12,Brc1csc(-c2noc(C3COCCO3)n2)c1 (stereo not given),0.61
13,CC1c2ncc(COCC3CC3)n2CCN1C(=O)c1ccnnc1 (stereo not given),-5.45
14,Cn1c(-c2cccs2)nn(CCNS(=O)(=O)c2ccccc2Cl)c1=O,-1.9
15,CCOCC(=O)N1CCC(Oc2ccc(C(F)(F)F)cn2)CC1,-4.36
16,CNC(=O)C1CCN(C(=O)c2ccn(-c3ccc(F)cc3)n2)CC1,-15
17,CC(C)CCN1CCNC(=O)C1CC(=O)NCCc1cc(O)ncn1 (stereo not given),-11
18,CCN(Cc1cccc(F)c1)c1ccc2nnnn2n1,-1.32
19,OCCNc1nc(Nc2ccccc2)c2nccnc2n1,-0.149
20,c1cc(CN2CCc3c(CN4CCCC4)n[nH]c3C2)ccn1,23.4
21,Cc1ncn(CCNC(=O)Nc2ccc(F)c(Cl)c2)c(=O)c1C,-3.86
22,COC(=O)c1cc(C)nc(N2CCN(Cc3ccn(C(C)C)c3)CC2)n1,-18.7
23,CC(=O)c1ccc(S(=O)(=O)N2CCOC(Cn3ccnc3)C2)cc1 (stereo not given),-7.46

row,Structure (SMILES),cytotoxicity at 70.5 h [%]
1,Cc1cnn(CC2CCCN2C(=O)c2cn(C)c3ccccc23)c1 (stereo not given),-9.04
2,N#CCCn1cnc2c(Br)cccc2c1=O,-14.7
3,Nc1nccnc1C(=O)N1CCN(CCOc2ccccc2)CC1,20.7
4,COC(=O)c1cccc(S(=O)(=O)Nc2ncc(C)s2)c1,0.827
5,CCc1ccc(CC)c(NCc2cnc(N3CCOCC3)nc2)c1,-2.91
6,Cc1ccc(O)c(-c2cc(NCCO)nc3[nH]ccc23)c1,-4.62
7,CNS(=O)(=O)CCNc1cc(C)nc2cc(C)nn12,-2.52
8,Oc1cccc(-c2cc(CC3(N(CC4CC4)CC4CC4)COC3)no2)c1,-6.61
9,CCc1nnc(Nc2cc(C)nc(C3CCN(c4ccncn4)C3)n2)s1 (stereo not given),12.4
10,Brc1ccc(C2(NCc3noc(C4CC4)n3)CCC2)cc1,2.53
11,COc1ccc(NC(=O)Nc2c(O)c3ccccc3oc2=O)cc1,-1.02
12,CC(C)Oc1ncccc1CNC(=O)N1CCOCC1,-14.9
13,CC(=O)N(C)Cc1ncn2c1CN(C(=O)CC1CC1)CCC2,-9.44
14,Cc1cccc(N2CC3(CCN(Cc4nccn4C)C3)CC2=O)c1 (stereo not given),-8.56
15,Cc1cccc(NC(C)C(=O)Nc2nccs2)c1 (stereo not given),-14.6
16,O=C(O)CCc1cc2n(n1)CCCN(C(=O)c1cc3ccccc3s1)C2,30
17,CN(Cc1ccc(F)c(F)c1)C(=O)CCc1nc(-c2nnc[nH]2)no1,-4.47
18,COCCN1C(=O)[C@H]2CC[C@@H]1CN(C(=O)Cc1ccc(O)c(Cl)c1)C2,16.7
19,CNC(=O)[C@@H]1C[C@@H]2CCN(Cc3ccoc3)C[C@H]2O1,-6.85
20,COc1c(C2CCCN2CC(=O)NCc2ccccn2)c(C)nn1C (stereo not given),-11.4
21,Cc1cccc(CN2CC3(CCNCC3)OCC2=O)n1,0.469
22,Cc1sc2nc(CCN)nc(N3CCC(N4CCCC4)CC3)c2c1C,-4.21
23,CCc1ncc2c(n1)CN(Cc1nc(-c3ccco3)oc1C)CC2,-7.47

row,Structure (SMILES),cytotoxicity at 70.5 h [%]
1,CN(CCc1ccccn1)CCc1nccs1,-8.22
2,Cn1ccnc1C1CCCN(C(=O)c2cc(F)cc(F)c2)C1 (stereo not given),-6.29
3,Cn1nc(Br)c2c(NCCS(N)(=O)=O)ncnc21,28.8
4,CC(NS(C)(=O)=O)C(=O)N1CCCN(Cc2cscn2)CC1 (stereo not given),-1.86
5,Cc1nc(C)n(C2CCCN(C(=O)c3ccccc3C)C2)n1 (stereo not given),-7.9
6,O=C(NCC1CCS(=O)(=O)C1)Nc1ccccn1 (stereo not given),3.81
7,c1cnc(NC2COC3(CCN(Cc4nccs4)CC3)C2)cn1 (stereo not given),-8.19
8,CC(CC(=O)c1ccccc1)NC(=O)c1ccon1 (stereo not given),-5.06
9,N#Cc1ccc(N2CCC3(CC2)CC(OCc2cccnc2)CO3)cc1 (stereo not given),-1.15
10,COc1ncccc1C(=O)N1CCN(C(=O)Cc2ccccn2)CC1,6.6
11,CCOc1ccc(C(=O)CCC(=O)NCc2cncn2CC)cc1C,40.5
12,CN(Cc1ccco1)C(=O)CN1CCCC(Cn2cncn2)C1 (stereo not given),-8.21
13,Cn1c(CO)nnc1CC1CCN(Cc2ccc(C#N)cc2)CC1,-1.35
14,COCCN1CCCC(O)(CN2CCN(c3cnccn3)CC2)C1=O (stereo not given),-3.08
15,CCNc1ncc(C(=O)NC2COC3(CCCC3)C2)cn1 (stereo not given),-3.75
16,O=C(Cc1ccccc1Cl)NCC1CCN(Cc2ccsc2)CC1,-5.31
17,COc1ccc2[nH]cc(-c3ccnc(N4CCC(C)CC4)n3)c2c1,1.51
18,O=C1CC(NS(=O)(=O)c2ccc(F)c(Cl)c2)CN1 (stereo not given),0.519
19,Cc1cc(CN(C)Cc2csc(-c3cccs3)n2)n[nH]1,-1.87
20,Cn1ccc(C(=O)N2CCC3(CCN3c3ncccn3)C2)n1 (stereo not given),-1.24
21,Cc1nn(C)c(N(C)C)c1CNCc1nnc2n1CCCCC2,-6.41
22,O=S1(=O)CCC(S(=O)(=O)c2cccc(S(=O)(=O)N3CCCCCC3)c2)C1 (stereo not given),-10.9
23,CC(=O)N1CCCN(C(=O)NCc2ccc(Cl)s2)CC1,-3.07

row,Structure (SMILES),cytotoxicity at 70.5 h [%]
1,COc1ccc(-c2c(C(C)C)nn3c(=N)c(C#N)n[nH]c23)cc1,-20.1
2,O=C(O)c1cn2cc(C(F)(F)F)ccc2n1,2.77
3,O=C(NCc1ccccc1CN1CCCC1)Nc1cccnc1,-4.93
4,Cc1ccc(C2(O)CCN(C(=O)Cn3cc(C)c(=O)[nH]c3=O)CC2)nc1,-7.28
5,CCN1C[C@@H](C(=O)O)[C@H](c2cccc(OC)c2)C1,5.16
6,CCC1c2cccn2CCN1C(=O)c1ccno1 (stereo not given),-9.21
7,CCS(=O)(=O)N1C[C@@H](Oc2ccccn2)[C@H]2OCCC[C@H]21,25.1
8,CCN1CC(C(=O)NCc2nn(CC)c3ccccc23)CCC1=O (stereo not given),10.8
9,COc1ccc(-n2cccn2)c(CN2CCC3(CCCNC3)C2)c1 (stereo not given),-7.03
10,CCCC(=O)NC1CCCN(c2nc3ccccc3cc2CO)C1 (stereo not given),13.7
11,CC(C)OCCCN(Cc1ccncc1)Cc1cccc(F)c1,1.37
12,CCN(CC)C(=O)c1nc2c(s1)CCN(C(=O)Nc1ccccc1)CC2,5.97
13,Cc1cccc(CNc2nnc(C(C)C)o2)c1,0.308
14,CSc1cccc(CN2CCn3nc(CNC(C)=O)cc3C2)c1,5.2
15,CC(O)CCN(C)C(=O)Nc1cccc(F)c1 (stereo not given),-8.99
16,Cc1n[nH]c(C)c1-c1cc(-c2cc[nH]c2)nc(N)c1C#N,-12.3
17,CC(C)C(=O)N1CCN(C(=O)c2cc(Cl)no2)[C@H]2CS(=O)(=O)C[C@H]21,-2.12
18,COc1ncccc1CNC(=O)C1CC(=O)N(C)C1 (stereo not given),0.32
19,CCCc1c(C(=O)N2CCN(c3ncccn3)CC2)cnn1C,-10.6
20,CNc1nccc(-c2cn(C)nc2C)n1,1.94
21,COc1cc(C)ccc1OCCC(=O)N1CCCC(n2cncn2)C1 (stereo not given),-9.18
22,CC(C)Cc1cc(C(=O)NC(C)(CO)CO)n(C)n1,-16.8
23,CCC(=O)N1CCCCC[C@@H]2[C@@H]1[C@H](c1cccc(F)c1)CN2C,16.4
